Series [1] deals with B. improvisus. As to the kind of experiment: Field experiment, paint-coated panels in sea water: recruitment/settlement of B. improvisus. Format: in vivo, Balanus improvisus. The note with it: for Reduction of recruitment (%): B. improvisus; for reduction of settlement of B. Improvisus: panels eight weeks in sea water, 0.2-1.5 m depth (FIG. 1). An excerpt:
(§1) The effects of barettin and 8,9-Dihydrobarettin on B. improvisus recruitment was studied, by formulating different paints with different concentrations of the active substances.
(§2) The paints were commercially available paints and the four different paints are listed below:
One compound according to the present invention, benzo[g]dipodazine, which is the at present preferred compound, was formulated in a commercially available paint (SPF, from Lotréc, Lidingö, Sweden). The concentration of benzo[g]dipodazine in the paint was 0.1% and 0.01% based on the weight of the paint.
The paint was coated on panels in the same way as described above in Example 1 (comparative example). A control panel was coated with the same paint without benzo[g]dipodazine. All panels were immersed in sea water at a depth of 0.2-1.5 m, and maintained in the water for eight weeks.

For series [2], the system named is M. edulis. As to the kind of experiment: Field experiment, paint-coated panels in sea water: recruitment of M. edulis. It is filed as in vivo, Mytilus edulis.
Excerpt: as §1, §2
Also, the effects of barettin and 8,9-dihydrobarettin on M. edulis recruitment were studied. When analyzing the data on the recruitment of M. edulis in the present field experiment, in a 3-factor analysis of variance with substance, paint and concentration as fixed factors, there was a significant interaction between the factors substance and paint. The main contribution to the significant interaction between the factors substance and paint is the result of barettin in combination with the SPF paint. […] However, the SNK-test could not reveal any significant differences between data.

Series [3] has as its system cyprids larvae of B. improvisus. The following applies: B. improvisus cypris larvae, from ref [27], cited from earlier work; for EC50: read-out: EC50, inhibition of settlement of cypris larvae.
Series [4] shares this test system. The series can be described thus: Larval settlement assay (barnacle cyprids in dishes), incl. reversibility test. Format: in vivo, Balanus improvisus. The protocol:
Barnacle cyprids larvae of B. improvisus was reared in the laboratory as described in [2]. The settlement propensity and mortality of barnacle cyprids were used to evaluate the bioactive effect of barettin and analogues. Stock solutions of all compounds shown in FIG. 4 were prepared by dissolving the compounds in dimethylsulfoxide (DMSO). The stock solutions were further diluted in filtered seawater (FSW, Millipore 0.2 μm) to yield the desired concentrations of 1×10^−4, 1×10^−3 and 1×10^−2 mg ml^−1. The settlement assays were performed using Petri dishes of untreated polystyrene (Nunc no 240045, Ø 48 mm) containing 10 ml of FSW to which 20±5 cyprids were added. Cyprids were used on their first or second day after moulting. Each treatment with a specific analogue was replicated 4 times and dishes with FSW only or FSW containing DMSO (0.1%) served as controls. Dishes were maintained for 3-4 days at room temperature (21±2° C.) in the prevailing light:dark cycle of 9:15 h. The effects of the different analogues, classified as either neutral, stimulatory or inhibitory, on the cyprids, were determined by examining the dishes under a stereo microscope and checking for 1) attached and metamorphosed individuals, 2) non-metamorphosed, alive, non-attached cyprids and 3) dead cyprids. Each substance was tested at least in two independent experimental series. […]

Where [5] appears, read: FabiEco paint, 0.01% in paint, listed as 8,9-dihydro-barettin.
The mark [6] stands for this setting: FabiEco paint, 0.1% in paint, listed as 8,9-dihydro-barettin.
Setting [7] is: SPF paint, 0.01% in paint, vs control panels.
Setting [8] is: SPF paint, 0.1% in paint, vs control panels.
Setting [9] is: SPF paint, 0.01% in paint, 8-week period.
The mark [10] stands for this setting: SPF paint, 0.1% in paint, 8-week period.

Marks after values point to notes of the source that are not given here.

By EC50 is commonly meant the concentration giving half of the maximal effect. For `N=C(N)NCCC[C@@H]1NC(=O)[C@H](Cc2c[nH]c3cc(Br)ccc23)NC1=O` [8,9-dihydrobarettin], the “Reduction of recruitment (%)” value in series [1] (FabiEco paint, 0.01% in paint) is on record as 59%; in series [1] (setting [5]) it was 59* %; in series [1] (FabiEco paint, 0.1% in paint), 69%; in series [1] (setting [6]), 69*** %; in series [1] (H2000 paint, 0.01% in paint), 46%; in series [1] (H2000 paint, 0.1% in paint), 20%. Moreover, the “Reduction of recruitment (%)” value in series [1] (setting [7]) is 43%; in series [1] (setting [8]), 61%; in series [1] (SPF paint, 0.1% in paint, vs control panels, listed as 8,9-dihydro-barettin), 61** %; in series [1] (TF paint, 0.01% in paint) it was −10%; in series [1] (TF paint, 0.1% in paint) it was −1%; in series [2] (FabiEco paint, 0.01% in paint), 50%. The “Reduction of recruitment (%)” value in series [2] (setting [5]) was 50* %; in series [2] (FabiEco paint, 0.1% in paint) it was 67%; in series [2] (setting [6]), 67** %; in series [2] (H2000 paint, 0.01% in paint), 53%; in series [2] (H2000 paint, 0.01% in paint, listed as 8,9-dihydro-barettin), 53* %; in series [2] (H2000 paint, 0.1% in paint) it was 39%. The “Reduction of recruitment (%)” value in series [2] (setting [9]) was 52%; in series [2] (setting [10]), 72%; in series [2] (SPF paint, 0.1% in paint, 8-week period, listed as 8,9-dihydro-barettin) it was 72** %; in series [2] (TF paint, 0.01% in paint), −28%; in series [2] (TF paint, 0.1% in paint), 3.8%. Also, the “effect on larval mortality” value in series [3] is reported as “none of the compounds displayed any significant effect on larval mortality”. Besides, the EC50 in series [3] was 7.9 µM.
`N=C(N)NCCC[C@@H]1NC(=O)/C(=C/c2c[nH]c3cc(Br)ccc23)NC1=O` [barettin]: the “Reduction of recruitment (%)” value is recorded as 45% in series [1] (FabiEco paint, 0.01% in paint); 49% in series [1] (FabiEco paint, 0.1% in paint); 28% in series [1] (H2000 paint, 0.01% in paint); 23% in series [1] (H2000 paint, 0.1% in paint); 67% in series [1] (setting [7]); 89% in series [1] (setting [8]). The “Reduction of recruitment (%)” value in series [1] (TF paint, 0.01% in paint) was 25%; in series [1] (TF paint, 0.1% in paint) it was 17%; in series [2] (FabiEco paint, 0.01% in paint), 51%; in series [2] (FabiEco paint, 0.1% in paint), 47%; in series [2] (H2000 paint, 0.01% in paint) it was 26%; in series [2] (H2000 paint, 0.1% in paint), 12%. Besides, the “Reduction of recruitment (%)” value in series [2] (setting [9]) is 83%; in series [2] (setting [10]), 81%; in series [2] (TF paint, 0.01% in paint) it was 51* %; in series [2] (TF paint, 0.01% in paint, listed as Barettin), 51%; in series [2] (TF paint, 0.1% in paint) it was 6%. Besides, the “effect on larval mortality” value in series [3] is “none of the compounds displayed any significant effect on larval mortality”. In addition, the EC50 in series [3] was 0.9 µM.
For `O=C1CNC(=O)/C(=C/c2c[nH]c3c2ccc2ccccc23)N1` [benzo[g]dipodazine], the “inhibition of settlement of cyprids” value in series [4] (34 μM in dishes (FIG. 2A)) is listed as “complete inhibition”. Moreover, in series [4] (totally inhibited cyprids transferred to fresh sea water (FSW) (FIG. 2B)), the “reversibility: ability of cyprids to settle again in fresh seawater after exposure” value is recorded as “regained this capability when transferred to fresh sea water”. The “reduction of settlement of B. Improvisus” value was “about 73%” in series [1] (SPF paint, 0.01% by weight of paint) and “about 85%” in series [1] (SPF paint, 0.1% by weight of paint).
By melting point is commonly meant the temperature, or range, at which the solid turns liquid. The molecule `O=C1CNC(=O)C(=Cc2cc3ccccc3s2)N1` [compound 12, 3-[1-benzothiophen-2-yl-methylidene]-piperazine-2,5-dione] showed a melting point of 258 °C.
